Results on 78 compounds are retold here after publication PMC12040169 (PLOS Biology, 2025).

Structures are written as SMILES.

A short description of this series: in vitro. To be noted: human, hela cells, % viability.
In general, viability refers to a read-out of living cells in per cent, often relative to untreated cells. In the case of `O=C(CCc1cccnc1)N1CCCCC1c1nc2cc(F)ccc2[nH]1` (stereo not drawn) [CBK291106], the viability at 28.5 h, 10 µM was found to be 112%.

Consider `O=C(CCc1ccc(=O)[nH]n1)N1CCCCC1c1nc2cc(F)ccc2[nH]1` (stereo not drawn) [CBK291107], for which the viability at 28.5 h, 10 µM is 105%.

As to `CC(=O)Nc1cnn(-c2ccc(C(=O)N3CCCCC3c3nc4ccccc4[nH]3)cc2)c1` (stereo not drawn) [CBK291109], the viability at 28.5 h, 10 µM worked out at 83.3%.

Regarding `CC(=O)N1CCCC(c2nc(-c3ccncc3)ncc2-c2ccccc2)C1` (stereo not drawn) [CBK291110], the viability at 28.5 h, 10 µM is 82.2%.

As for `Cc1ccc(Nc2ncc(C(=O)NCc3ccccn3)c3ccccc23)cc1Cl` [CBK291113], the viability at 28.5 h, 10 µM turned out to be 109%.

Take `Cc1cc(NC(=O)c2c(F)cccc2F)nc2c1c(=O)oc1ccccc12` [CBK291115]: the viability at 28.5 h, 10 µM was found to be 110%.

On to `O=C(Cn1c(=O)cc(O)c2ccccc21)N1CCN(c2ccccn2)CC1` [CBK291117], for which the viability at 28.5 h, 10 µM stood at 94.4%.

With `CCCn1c(=O)c(C(=O)NCCN(CC)CC)c(O)c2cc(Br)ccc21` [CBK291118], the viability at 28.5 h, 10 µM is 85.7%.

For the compound `Cc1cc(NC(=O)c2ccc3c(c2)OCO3)nc2c1c(=O)oc1ccccc12` [CBK291121], the viability at 28.5 h, 10 µM came out at 117%.

On to `Cc1cc(NC(=O)c2ccc3ccccc3c2)nc2c1c(=O)oc1ccccc12` [CBK291122], for which the viability at 28.5 h, 10 µM is 117%.

Take `Cc1cc(O)cc(=O)n1Cc1cccnc1` [CBK291123]: the viability at 28.5 h, 10 µM is 112%.

Turning to `Cc1cc(NC(=O)c2ccco2)nc2c1c(=O)oc1ccccc12` [CBK291124], the viability at 28.5 h, 10 µM amounted to 110%.

On to `Cc1cc(NC(=O)c2ccccc2)nc2c1c(=O)oc1ccccc12` [CBK291126], for which the viability at 28.5 h, 10 µM was found to be 113%.

As for `Cc1cc(NC(=O)Cc2ccccc2)nc2c1c(=O)oc1ccccc12` [CBK291127], the viability at 28.5 h, 10 µM came to 102%.

For the compound `CCCCCn1c(=O)c(C(=O)NCc2ccc(Cl)cc2)c(O)c2ccccc21` [CBK291131], the viability at 28.5 h, 10 µM came to 117%.

For `Cc1cc(NC(=O)C(C)(C)Oc2ccc(Cl)cc2)nc2c1c(=O)oc1ccccc12` [CBK291132], the viability at 28.5 h, 10 µM worked out at 112%.

As for `CCCCC1CCC(C(=O)Nc2cc(C)c3c(=O)oc4ccccc4c3n2)CC1` (stereo not drawn) [CBK291136], the viability at 28.5 h, 10 µM came to 101%.

Turning to `CC(C)N1CNc2c(c(=O)nc(O)n2Cc2ccccc2)C1` [CBK291139], the viability at 28.5 h, 10 µM was 92.5%.

As to `O=c1[nH]c(=O)n(Cc2ccccc2)c2nc[nH]c12` [CBK291140], the viability at 28.5 h, 10 µM stood at 108%.

On to `Cc1ccccc1-c1csc2c(=O)[nH]c(N3CCC4(CC3)OCCO4)nc12` [CBK291141], for which the viability at 28.5 h, 10 µM stood at 96.9%.

Turning to `Cc1cccc(-c2csc3c(=O)[nH]c(N4CCC5(CC4)OCCO5)nc23)c1` [CBK291142], the viability at 28.5 h, 10 µM is 102%.

For the compound `Cc1cc(O)c(C(=O)Nc2cccc(Cl)c2)c(=O)n1Cc1ccco1` [CBK291143], the viability at 28.5 h, 10 µM was found to be 91.2%.

For the compound `O=C(O)c1cccc(N2C(=O)CC(n3cnc4ccccc43)C2=O)c1` (stereo not drawn) [CBK291145], the viability at 28.5 h, 10 µM came out at 89.8%.

As to `COc1ccc(C(=O)Nc2nc3ccc(S(N)(=O)=O)cc3s2)cc1` [CBK291147], the viability at 28.5 h, 10 µM was 96.9%.

Regarding `CCCCn1nc(C(=O)N2CCCCC2c2ncc(-c3cccc(F)c3)[nH]2)ccc1=O` (stereo not drawn) [CBK291149], the viability at 28.5 h, 10 µM came to 98.6%.

On to `Cc1cc(NC(=O)C(C)Oc2ccccc2)nc2c1c(=O)oc1ccccc12` (stereo not drawn) [CBK291153], for which the viability at 28.5 h, 10 µM was 95.8%.

For the compound `c1ccc(-c2nc(-c3ccncc3)[nH]c2-c2ccccc2)cc1` [CBK291155], the viability at 28.5 h, 10 µM came to 85.3%.

Take `Oc1ccc(Nc2cc(-c3ccccc3)ncn2)cc1` [CBK291157]: the viability at 28.5 h, 10 µM was 79.8%.

Turning to `COc1ccc(Oc2nccc(-c3ccccc3)c2C#N)cc1` [CBK291158], the viability at 28.5 h, 10 µM is 98.7%.

As to `O=c1c(-c2cc(O)[nH]n2)c(O)c2ccccc2n1Cc1ccccc1` [CBK291160], the viability at 28.5 h, 10 µM was 97.2%.

In the case of `Cc1cc(NC(=O)c2cccc(C(F)(F)F)c2)nc2c1c(=O)oc1ccccc12` [CBK291163], the viability at 28.5 h, 10 µM is 101%.

Take `O=c1c(Cl)c(O)c2ccccc2n1Cc1ccccc1` [CBK291164]: the viability at 28.5 h, 10 µM worked out at 91.2%.

For the compound `O=c1c(Cc2ccccc2)c(O)c2cccc3c2n1CCC3` [CBK291166], the viability at 28.5 h, 10 µM is 93.3%.

Take `COc1ccc2ncc3c(c2c1)NCCNC3=O` [CBK291168]: the viability at 28.5 h, 10 µM amounted to 88.4%.

As for `O=C(O)c1cccc2c1C(=O)N(Cc1ccccc1F)C2` [CBK291172], the viability at 28.5 h, 10 µM was 86.8%.

As for `O=C(Nc1nccs1)c1c(O)n(Cc2ccccc2)c2ccccc2c1=O` [CBK291173], the viability at 28.5 h, 10 µM is 96.6%.

As to `COc1cc(Br)cc(C2NC(=O)c3cnc(SC)nc3N2)c1O` (stereo not drawn) [CBK291179], the viability at 28.5 h, 10 µM amounted to 91.9%.

For the compound `Cc1nn(-c2ccccn2)c(N)c1C1CC(=O)N(c2ccc(C(=O)O)cc2)C1=O` (stereo not drawn) [CBK291180], the viability at 28.5 h, 10 µM amounted to 95.2%.

Regarding `O=c1c([N+](=O)[O-])c(O)c2ccccc2n1Cc1ccccc1` [CBK291182], the viability at 28.5 h, 10 µM was 94.8%.

Consider `O=C(O)c1cccc2c1C(=O)N(Cc1ccc(F)cc1)C2` [CBK291183], for which the viability at 28.5 h, 10 µM stood at 87.3%.

In the case of `CCOc1ccc(CCNC(=O)c2cnc(Nc3ccccc3OC)c3ccccc23)cc1OCC` [CBK291185], the viability at 28.5 h, 10 µM is 94.5%.

For `COc1ccc(Sc2cc3n(c(=O)n2)CCc2cc(OC)c(OC)cc2-3)cc1` [CBK291186], the viability at 28.5 h, 10 µM came to 81.9%.

With `O=c1c(-c2ccccc2)c(O)cc(-c2ccccc2)n1Cc1ccccc1` [CBK291188], the viability at 28.5 h, 10 µM came out at 115%.

Consider `CCCc1nc(SC)ncc1C(=O)NCc1ccccn1` [CBK291190], for which the viability at 28.5 h, 10 µM turned out to be 108%.

On to `Cc1[nH]c(=O)c(C(=O)Nc2ccc(-n3ccc(C(N)=O)n3)cc2)cc1-c1ccccc1` [CBK291194], for which the viability at 28.5 h, 10 µM is 109%.

For the compound `COc1ccc(Cl)cc1C(=O)Nc1cc(C)c2c(=O)oc3ccccc3c2n1` [CBK291196], the viability at 28.5 h, 10 µM worked out at 108%.

For the compound `Cc1ccc(Nc2ncc(C(=O)NCCCN3CCCCCC3)c3ccccc23)cc1Cl` [CBK291197], the viability at 28.5 h, 10 µM was 105%.

For the compound `CCN(CC)CCNC(=O)c1c(O)c2ccccc2n(Cc2ccccc2)c1=O` [CBK291199], the viability at 28.5 h, 10 µM was determined as 113%.

As for `O=C(O)c1cccc2c1C(=O)N(Cc1c(F)cccc1Cl)C2` [CBK291201], the viability at 28.5 h, 10 µM is 111%.

On to `c1ccc(-c2nc(-c3ccncc3)sc2-c2ccccc2)cc1` [CBK291203], for which the viability at 28.5 h, 10 µM was 116%.

Take `Cc1cc(NC(=O)c2ccc(N3C(=O)CCC3=O)cc2)nc2c1c(=O)oc1ccccc12` [CBK291205]: the viability at 28.5 h, 10 µM was found to be 114%.

As for `O=C(Nc1cccnc1)c1c(O)n(Cc2ccccc2)c2ccccc2c1=O` [CBK291206], the viability at 28.5 h, 10 µM amounted to 110%.

For the compound `O=C(Nc1ncccc1O)c1c(O)c2ccccc2n(Cc2ccccc2)c1=O` [CBK291211], the viability at 28.5 h, 10 µM was determined as 103%.

Take `CCCCCn1c(=O)c(-c2nc3ccccc3c(=O)[nH]2)c(O)c2ccccc21` [CBK291215]: the viability at 28.5 h, 10 µM is 110%.

With `O=C(c1cc[nH]n1)N1CCCCC1c1ncc(-c2cccc(F)c2)[nH]1` (stereo not drawn) [CBK291217], the viability at 28.5 h, 10 µM was found to be 94.6%.

Consider `COc1cc(OC)cc(C(=O)Nc2cc(C)c3c(=O)oc4ccccc4c3n2)c1` [CBK291221], for which the viability at 28.5 h, 10 µM was determined as 95.2%.

As to `Cc1[nH]c(=O)c(C(=O)N(C)C(C)c2ccc(Cl)cc2)cc1-c1ccc(O)cc1` (stereo not drawn) [CBK291225], the viability at 28.5 h, 10 µM turned out to be 98.8%.

Take `COc1cc(CN2Cc3cccc(C(=O)O)c3C2=O)cc(OC)c1OC` [CBK291227]: the viability at 28.5 h, 10 µM stood at 108%.

For `Cc1nc2ncnc(N3CCc4ccccc43)c2[nH]1` [CBK291228], the viability at 28.5 h, 10 µM is 89.2%.

`Cc1cc(NC(=O)COc2ccc(Cl)cc2)nc2c1c(=O)oc1ccccc12` [CBK291230]: the viability at 28.5 h, 10 µM is 92.9%.

As for `COc1ccc(C(=O)Nc2cc(C)c3c(=O)oc4ccccc4c3n2)c(OC)c1` [CBK291231], the viability at 28.5 h, 10 µM came out at 94.5%.

In the case of `CN(C)CCCn1cnc2c1c(=O)[nH]c(=O)n2Cc1ccccc1` [CBK291234], the viability at 28.5 h, 10 µM came to 95.3%.

With `CN(C)CCn1cnc2c1c(=O)[nH]c(=O)n2Cc1ccccc1` [CBK291235], the viability at 28.5 h, 10 µM was 96.9%.

For `COc1ccc(CN2Cc3cccc(C(=O)O)c3C2=O)cc1OC` [CBK291237], the viability at 28.5 h, 10 µM was determined as 83.5%.

In the case of `Cc1cc(NC(=O)c2cccc(Br)c2)nc2c1c(=O)oc1ccccc12` [CBK291238], the viability at 28.5 h, 10 µM was found to be 94.3%.

Consider `CCOc1ccccc1C(=O)Nc1cc(C)c2c(=O)oc3ccccc3c2n1` [CBK291240], for which the viability at 28.5 h, 10 µM stood at 87.4%.

On to `CCc1c(C(=O)NC(C)c2cccc(Cl)c2)cnc2cc(O)nn12` (stereo not drawn) [CBK291243], for which the viability at 28.5 h, 10 µM came out at 95%.

With `CCc1c(C(=O)Nc2ccc(C(F)(F)F)cc2)cnc2ncnn12` [CBK291244], the viability at 28.5 h, 10 µM turned out to be 90.4%.

For `O=C(O)c1cccc2c1C(=O)N(Cc1cccs1)C2` [CBK291246], the viability at 28.5 h, 10 µM was determined as 95.3%.

In the case of `Cc1cc(NC(=O)C2CCCCC2)nc2c1c(=O)oc1ccccc12` [CBK291247], the viability at 28.5 h, 10 µM is 83.1%.

Regarding `Cc1ccc(Nc2ncc(C(=O)NCCCN3CCN(c4cccc(Cl)c4)CC3)c3ccccc23)cc1Cl` [CBK291251], the viability at 28.5 h, 10 µM is 90.1%.

For `CC(c1ccccc1)N1Cc2cccc(C(=O)O)c2C1=O` (stereo not drawn) [CBK291252], the viability at 28.5 h, 10 µM came out at 97.6%.

As for `CC1(c2cc(F)ccc2F)NC(=O)N(c2ccncc2)C1=O` (stereo not drawn) [CBK291253], the viability at 28.5 h, 10 µM came to 92.9%.

In the case of `COc1ccc(Oc2ncnc3c2[nH]c2ccccc23)cc1` [CBK291254], the viability at 28.5 h, 10 µM was determined as 88.9%.

Regarding `O=c1cc(O)c2ccccc2n1Cc1ccccc1Cl` [CBK291255], the viability at 28.5 h, 10 µM was found to be 93.4%.

For the compound `Cc1cc(NC(=O)c2cc3ccccc3o2)nc2c1c(=O)oc1ccccc12` [CBK291256], the viability at 28.5 h, 10 µM was found to be 90.2%.

`Cc1cc(NC(=O)CN2CCC(Cc3ccccc3)CC2)nc2c1c(=O)oc1ccccc12` [CBK291261]: the viability at 28.5 h, 10 µM came to 87.2%.

As for `Cc1cc(NC(=O)c2ccc(Cl)c([N+](=O)[O-])c2)nc2c1c(=O)oc1ccccc12` [CBK291263], the viability at 28.5 h, 10 µM was 96.7%.
